# Results: PMC5218480 (PLoS ONE, 2017)
# Test system: MV-4-11 cells
# Test: Gene expression microarray analysis (Affymetrix PrimeView) and GSEA
# Format: cell-based, human
# Conditions: MV-4-11, 48 hours, 1 μM each
compound,measurement,value
Nc1ccc(-c2cccs2)cc1NC(=O)c1ccc2c(c1)cc(C1CC1)n2CCN1CCOCC1 [ACY-1035],genes down-regulated greater than 2-fold relative to vehicle control,72 genes
